Patent US9296725B2, “Heterocyclyl pyrimidine analogues as TYK2 inhibitors” (Cellzome Limited, priority 2012, dated 2016)
Like-named read-outs stand apart in the source and are kept apart here.

How the values were obtained:
JAK2 = molecular target: T1, JAK2 (Homo sapiens, UniProt O60674); assay: Kinobeads assay, JAK2 (competition binding in mixed Molt4/Ramos cell lysate, dot blot detection); settings: read-out: JAK2 Band (Kinobeads assay potency, IC50)
T1 construct: endogenous in cells; host or cells: Molt4 (ATCC CRL-1582) and Ramos (ATCC CRL-1596), mixed lysate 1:2
How it was run: (§1)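 JAK2 and TYK2 retained on Kinobeads (immobilized aminopyrido-pyrimidine ligand) from 1:2 Molt4:Ramos lysate (10 mg/mL) were quantified by antibody dot blot (Odyssey infrared) after 3 h cold incubation with compound. Nine-step 1:3 dilution series; IC50 calculated from curves.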

TYK2 = molecular target: T2, TYK2 (Homo sapiens, UniProt P29597); assay: Kinobeads assay, TYK2 (competition binding in mixed Molt4/Ramos cell lysate, dot blot detection)
T2 construct: endogenous in cells; host or cells: Molt4 (ATCC CRL-1582) and Ramos (ATCC CRL-1596), mixed lysate 1:2
How it was run: as §1

[1] = Kinobeads assay, Molt4/Ramos lysate, read-out: TYK2 Band (Kinobeads assay potency, IC50)

T2 sequence (P29597 whole entry): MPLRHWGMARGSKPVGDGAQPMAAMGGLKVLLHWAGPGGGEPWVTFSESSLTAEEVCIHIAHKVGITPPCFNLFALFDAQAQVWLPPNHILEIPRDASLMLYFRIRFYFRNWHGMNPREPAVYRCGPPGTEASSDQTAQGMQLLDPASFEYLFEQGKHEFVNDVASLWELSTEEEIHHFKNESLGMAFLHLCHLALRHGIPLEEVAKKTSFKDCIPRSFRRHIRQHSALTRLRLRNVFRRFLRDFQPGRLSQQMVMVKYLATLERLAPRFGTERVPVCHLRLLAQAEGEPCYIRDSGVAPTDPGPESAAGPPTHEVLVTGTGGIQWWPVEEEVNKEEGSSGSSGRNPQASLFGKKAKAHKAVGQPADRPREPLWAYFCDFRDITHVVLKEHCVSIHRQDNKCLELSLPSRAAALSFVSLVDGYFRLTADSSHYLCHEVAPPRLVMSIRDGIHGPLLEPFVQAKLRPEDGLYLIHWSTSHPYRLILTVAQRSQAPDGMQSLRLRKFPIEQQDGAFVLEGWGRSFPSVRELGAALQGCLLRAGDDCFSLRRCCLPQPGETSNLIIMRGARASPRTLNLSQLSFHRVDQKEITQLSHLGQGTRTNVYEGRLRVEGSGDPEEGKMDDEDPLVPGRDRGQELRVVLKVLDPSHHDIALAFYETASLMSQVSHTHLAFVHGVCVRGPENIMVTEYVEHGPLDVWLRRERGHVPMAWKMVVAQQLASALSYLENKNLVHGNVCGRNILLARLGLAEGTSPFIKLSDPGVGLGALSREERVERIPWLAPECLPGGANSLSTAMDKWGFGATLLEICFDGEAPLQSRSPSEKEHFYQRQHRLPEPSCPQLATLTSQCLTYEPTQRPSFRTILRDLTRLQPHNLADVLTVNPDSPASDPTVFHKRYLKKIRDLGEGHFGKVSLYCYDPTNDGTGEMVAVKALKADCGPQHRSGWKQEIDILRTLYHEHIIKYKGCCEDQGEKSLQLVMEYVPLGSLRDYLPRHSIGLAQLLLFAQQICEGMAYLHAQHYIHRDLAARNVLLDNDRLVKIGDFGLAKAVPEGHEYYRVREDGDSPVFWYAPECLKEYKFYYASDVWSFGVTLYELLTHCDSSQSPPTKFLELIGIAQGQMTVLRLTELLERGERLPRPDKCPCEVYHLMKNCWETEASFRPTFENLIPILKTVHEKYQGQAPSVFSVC
T1 sequence (O60674 whole entry): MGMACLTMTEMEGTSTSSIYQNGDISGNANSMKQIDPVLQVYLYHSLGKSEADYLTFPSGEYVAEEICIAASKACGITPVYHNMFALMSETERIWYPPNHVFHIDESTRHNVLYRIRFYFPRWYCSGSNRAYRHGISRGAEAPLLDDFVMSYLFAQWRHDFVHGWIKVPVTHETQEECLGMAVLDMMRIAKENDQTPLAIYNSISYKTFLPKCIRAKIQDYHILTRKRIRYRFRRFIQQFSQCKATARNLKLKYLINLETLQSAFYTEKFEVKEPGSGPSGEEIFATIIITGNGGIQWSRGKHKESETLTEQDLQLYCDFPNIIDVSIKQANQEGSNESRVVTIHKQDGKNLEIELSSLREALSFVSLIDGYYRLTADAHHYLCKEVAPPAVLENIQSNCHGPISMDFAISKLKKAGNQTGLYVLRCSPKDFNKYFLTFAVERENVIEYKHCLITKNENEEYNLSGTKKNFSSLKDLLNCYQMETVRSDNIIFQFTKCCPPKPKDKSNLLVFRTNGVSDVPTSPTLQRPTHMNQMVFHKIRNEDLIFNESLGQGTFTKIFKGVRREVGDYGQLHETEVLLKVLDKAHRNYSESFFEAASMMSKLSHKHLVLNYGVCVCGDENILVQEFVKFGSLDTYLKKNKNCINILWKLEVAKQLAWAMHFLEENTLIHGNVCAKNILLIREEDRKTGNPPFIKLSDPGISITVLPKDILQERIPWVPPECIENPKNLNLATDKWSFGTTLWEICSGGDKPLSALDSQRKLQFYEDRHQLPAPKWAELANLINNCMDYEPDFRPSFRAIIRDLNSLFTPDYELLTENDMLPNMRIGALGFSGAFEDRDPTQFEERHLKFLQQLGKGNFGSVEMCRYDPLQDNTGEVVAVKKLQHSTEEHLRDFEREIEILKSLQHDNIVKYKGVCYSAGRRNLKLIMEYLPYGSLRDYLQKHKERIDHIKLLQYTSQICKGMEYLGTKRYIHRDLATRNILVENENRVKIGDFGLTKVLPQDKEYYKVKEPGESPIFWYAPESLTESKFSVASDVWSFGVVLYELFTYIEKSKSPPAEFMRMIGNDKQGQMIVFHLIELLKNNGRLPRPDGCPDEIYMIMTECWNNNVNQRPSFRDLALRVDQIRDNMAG

Structure (SMILES)	IC50 (JAK2) [nM]	IC50 (TYK2; [1]) [nM]	IC50 (TYK2; read-out: TYK2 IC50) [nM]
CNC(=O)Cn1cc(Nc2ncc(Cl)c(NCc3ccccc3S(C)(=O)=O)n2)cn1 [Example I-451]	1000 to 10000	1000 to 10000	–
Clc1cnc(Nc2cnn(Cc3ncco3)c2)nc1NCc1ccccc1 [Example I-249]	1000 to 10000	1000 to 10000	–
Cn1cc(Nc2nccc(NCc3c(F)cc(F)cc3F)n2)cn1 [Example I-310]	> 10000	100 to 1000	–
COc1cc(F)c(CNc2nc(Nc3cnn(CC(N)=O)c3)ncc2C)c(F)c1 [Example I-315]	1000 to 10000	10 to 100	–
Cn1cc(Nc2ncc(F)c(NCc3cccc(C#N)c3)n2)cn1 [Example I-183]	1000 to 10000	10 to 100	–
O=C(Cn1cc(Nc2ncc(Cl)c(NCc3cncc(F)c3)n2)cn1)N1CCOCC1 [Example I-339]	100 to 1000	10 to 100	–
Cc1cccc(F)c1CNc1ccnc(Nc2cnn(C)c2)n1 [Example I-437]	1000 to 10000	10 to 100	–
Cc1cnc(Nc2cnn(CCO)c2)nc1NCc1c(F)cc(F)cc1F [Example I-303]	100 to 1000	10 to 100	–
C[C@@H](CO)NC(=O)Cn1cc(Nc2nccc(NCc3c(Cl)cccc3Cl)n2)cn1 [Example I-3, (S)-2-(4-((4-((2,6-dichlorobenzyl)amino)pyrimidin-2-yl)amino)-1H-pyrazol-1-yl)-N-(1-hydroxypropan-2-yl)acetamide]	1000 to 10000	10 to 100	< 100
CS(=O)(=O)NCc1cccc(CNc2nc(Nc3cnn(CC(=O)N4CCC[C@@H]4C#N)c3)ncc2Cl)c1 [Example I-399]	1000 to 10000	100 to 1000	–
O=C(Cn1cc(Nc2ncc(Cl)c(NCc3ccccc3)n2)cn1)N1CCNCC1 [Example I-187]	100 to 1000	10 to 100	–
NC(=O)Cn1cc(Nc2nccc(NCc3c(F)cc(F)cc3F)n2)cn1 [Example I-311]	1000 to 10000	10 to 100	–
CNC(=O)Cn1cc(Nc2ncc(Cl)c(NCc3cccc(C#N)c3)n2)cn1 [Example I-230]	1000 to 10000	10 to 100	–
CN(C)C(=O)Cn1cc(Nc2ncc(Cl)c(NCc3cc(Br)cc(F)c3F)n2)cn1 [Example I-263]	100 to 1000	100 to 1000	–
O=C(Cn1cc(Nc2nccc(NCc3c(F)cccc3Cl)n2)cn1)NC1CC1 [Example I-139]	1000 to 10000	≤ 10	–
CC1(C)COCCN1C(=O)Cn1cc(Nc2ncc(F)c(NCc3c(F)cc(F)cc3F)n2)cn1 [Example I-309]	1000 to 10000	10 to 100	–
Cc1cnc(Nc2cnn(C)c2)nc1NCc1cc(F)cc(F)c1 [Example I-343]	10 to 100	10 to 100	–
Cc1cnc(Nc2cnn(CC(=O)N[C@@H](C)CO)c2)nc1NCc1c(F)cc(F)cc1F [Example I-36]	100 to 1000	≤ 10	–
CNC(=O)Cn1cc(Nc2ncc(F)c(NCc3cccc(OC(F)F)c3)n2)cn1 [Example I-408]	> 10000	10 to 100	–
N#Cc1cccc(CNc2nc(Nc3cnn(CCO)c3)ncc2F)c1 [Example I-167]	1000 to 10000	10 to 100	–
[2H]C([2H])(O)C([2H])([2H])n1cc(Nc2ncc(Cl)c(NCc3ccccc3)n2)cn1 [Example I-231]	1000 to 10000	100 to 1000	–
Cn1cc(Nc2nccc(NCc3c(Cl)ccc(Cl)c3F)n2)cn1 [Example I-60]	100 to 1000	10 to 100	–

Structure (SMILES)	IC50 (JAK2) [nM]	IC50 (TYK2; [1]) [nM]	IC50 (TYK2; read-out: TYK2 IC50) [nM]
O=C(Cn1cc(Nc2nccc(NCc3c(F)cc(F)cc3F)n2)cn1)NCC1COCCO1 (stereo not drawn) [Example I-432]	1000 to 10000	10 to 100	–
O=C(Cn1cc(Nc2nccc(NCc3c(F)cc(F)cc3F)n2)cn1)NCCF [Example I-90]	1000 to 10000	10 to 100	–
COc1ccc(F)c(CNc2nc(Nc3cnn(CC(=O)O)c3)ncc2Cl)c1F [Example I-295]	1000 to 10000	10 to 100	–
CC(NC(=O)Cn1cc(Nc2nccc(NCc3c(F)cc(F)cc3F)n2)cn1)C(F)F (stereo not drawn) [Example I-149]	> 10000	10 to 100	–
O=C(Cn1cc(Nc2ncc(F)c(NCc3cccc(OC(F)F)c3)n2)cn1)N1CCOCC1 [Example I-44]	1000 to 10000	≤ 10	–
N#CCNC(=O)Cn1cc(Nc2nccc(NCc3c(F)cc(F)cc3F)n2)cn1 [Example I-110]	> 10000	10 to 100	–
C[C@H](C(N)=O)n1cc(Nc2ncc(Cl)c(NCc3ccccc3)n2)cn1 [Example I-290]	1000 to 10000	100 to 1000	–
OCCn1cc(Nc2ncc(Cl)c(NCc3cccc(C(F)F)c3)n2)cn1 [Example I-293]	100 to 1000	100 to 1000	–
CS(=O)(=O)c1ccc(F)c(CNc2nc(Nc3cn[nH]c3)ncc2F)c1 [Example I-114]	1000 to 10000	10 to 100	–
CC(C)NC(=O)Cn1cc(Nc2nccc(NCc3c(F)cccc3Cl)n2)cn1 [Example I-77]	1000 to 10000	≤ 10	–
CC(C)NC(=O)Cn1cc(Nc2ncc(Cl)c(NCc3cccc(OC(F)F)c3)n2)cn1 [Example I-391]	1000 to 10000	10 to 100	–
COc1ccc(F)c(CNc2nc(Nc3cnn(CCO)c3)ncc2Cl)c1F [Example I-320]	100 to 1000	10 to 100	–
CN(C)C(=O)Cn1cc(Nc2ncc(Cl)c(NCc3c(F)cc(F)cc3F)n2)cn1 [Example I-16]	1000 to 10000	10 to 100	–
Fc1cc(F)cc(CNc2nc(Nc3cnn(CC(F)F)c3)ncc2Cl)c1 [Example I-470]	100 to 1000	100 to 1000	–
Cc1cnc(Nc2cnn(CC(F)F)c2)nc1NCc1cccc(S(C)(=O)=O)c1 [Example I-466]	1000 to 10000	100 to 1000	–
CN(CC#N)C(=O)Cn1cc(Nc2ncc(Cl)c(NCc3ccccc3)n2)cn1 [Example I-238]	1000 to 10000	100 to 1000	–
CN(C)C(=O)Cn1cc(Nc2ncc(F)c(NCc3c(F)cc(F)cc3F)n2)cn1 [Example I-18]	1000 to 10000	10 to 100	–
CNC(=O)Cn1cc(Nc2ncc(Cl)c(NCc3cccc(CS(C)(=O)=O)c3)n2)cn1 [Example I-445]	1000 to 10000	100 to 1000	–
Cc1cnc(Nc2cnn(CC(=O)N(C)C)c2)nc1NCc1cc(F)cc(C(F)(F)F)c1 [Example I-330]	1000 to 10000	100 to 1000	–
O=C(O)Cn1cc(Nc2ncc(Cl)c(NCc3cc(F)cc(F)c3)n2)cn1 [Example I-168]	100 to 1000	100 to 1000	–
CCOC(=O)Cn1cc(Nc2ncc(F)c(NCc3c(F)cc(F)cc3F)n2)cn1 [Example I-54, Ethyl 2-(4-((5-fluoro-4-((2,4,6-trifluorobenzyl)amino)pyrimidin-2-yl)amino)-1H-pyrazol-1-yl)acetate]	1000 to 10000	10 to 100	–
Cn1cc(Nc2ncc(Cl)c(NCc3cc(Br)ccc3F)n2)cn1 [Example I-218]	100 to 1000	100 to 1000	–

Structure (SMILES)	IC50 (JAK2) [nM]	IC50 (TYK2; [1]) [nM]	IC50 (TYK2; read-out: TYK2 IC50) [nM]
CNC(=O)Cn1cc(Nc2ncc(F)c(NCc3c(F)cccc3F)n2)cn1 [Example I-381]	1000 to 10000	10 to 100	–
CNC(=O)Cn1cc(Nc2ncc(C)c(NCc3c(F)ccc(F)c3F)n2)cn1 [Example I-421]	100 to 1000	≤ 10	–
CS(=O)(=O)NCc1cccc(CNc2nc(Nc3cnn(CCO)c3)ncc2F)c1 [Example I-415]	1000 to 10000	100 to 1000	–
O=C(Cn1cc(Nc2ncc(Cl)c(NCc3ccccc3)n2)cn1)N1CC2COCC2C1 (stereo not drawn) [Example I-188]	1000 to 10000	10 to 100	–
C[C@H](CO)NC(=O)Cn1cc(Nc2nccc(NCc3c(F)cncc3F)n2)cn1 [Example I-147]	> 10000	10 to 100	–
C[C@H]1COCCN1C(=O)Cn1cc(Nc2ncc(F)c(NCc3c(F)cc(F)cc3F)n2)cn1 [Example I-73]	1000 to 10000	≤ 10	–
CC(C)N(C)C(=O)Cn1cc(Nc2ncc(F)c(NCc3c(F)cc(F)cc3F)n2)cn1 [Example I-59]	1000 to 10000	≤ 10	–
COc1ccc(F)c(CNc2nc(Nc3cnn(CC(=O)N(C)C)c3)ncc2Cl)c1F [Example I-376]	100 to 1000	10 to 100	–
Cn1cc(Nc2ncc(Cl)c(NCc3cc(C(F)(F)F)ccc3F)n2)cn1 [Example I-277]	1000 to 10000	100 to 1000	–
CCOc1cccc(CNc2nc(Nc3cnn(CCO)c3)ncc2Cl)c1 [Example I-294]	1000 to 10000	100 to 1000	–
COc1ccc(F)c(CNc2nc(Nc3cnn(CC(=O)N(C)C)c3)ncc2C)c1F [Example I-20]	100 to 1000	≤ 10	–
Fc1cc(F)c(CNc2nc(Nc3cn[nH]c3)ncc2Cl)c(F)c1 [Example I-372]	1000 to 10000	10 to 100	–
Cn1cc(Nc2ncc(Cl)c(NCc3cccc(Br)c3)n2)cn1 [Example I-163]	1000 to 10000	100 to 1000	–
Cn1cc(Nc2ncc(F)c(NCc3c(F)c(F)cc(F)c3F)n2)cn1 [Example I-462]	1000 to 10000	100 to 1000	–
CNC(=O)Cn1cc(Nc2ncc(Cl)c(NCc3ccccc3)n2)cn1 [Example I-195]	1000 to 10000	100 to 1000	–
CNC(=O)Cn1cc(Nc2ncc(F)c(NCc3cc(S(C)(=O)=O)ccc3OC)n2)cn1 [Example I-448]	1000 to 10000	10 to 100	–
CN(Cc1cccc(CNc2nc(Nc3cnn(CC(=O)N4CCOCC4)c3)ncc2Cl)c1)S(C)(=O)=O [Example I-401]	1000 to 10000	100 to 1000	–
C[C@@H](CO)NC(=O)Cn1cc(Nc2nccc(NCc3c(F)cccc3Cl)n2)cn1 [Example I-120]	1000 to 10000	≤ 10	–
COc1ccc(F)c(CNc2ccnc(Nc3cnn(CC(=O)N[C@@H]4C[C@@H]4F)c3)n2)c1F [Example I-128]	1000 to 10000	10 to 100	–
Cn1cc(Cn2cc(Nc3ncc(Cl)c(NCc4c(F)cccc4F)n3)cn2)cn1 [Example I-482]	1000 to 10000	100 to 1000	–
